Data from paper PMC2215335 (The Journal of General Physiology, 1977).
Entries after “also recorded” stand apart in the source; their conditions may differ.

Tests used:
[1] = system: residual conductance in chloride-free solution (largely attributable to K+), rat diaphragm; assay: Residual conductance in chloride-free solution; format: cell-based
[2] = system: membrane chloride conductance (GCl), rat diaphragm; assay: Inhibition of membrane chloride conductance; format: cell-based; conditions: for Relative potency: potency of 1 for a compound having a Ki of 1 x 10^-2 M; for Reduction of GCl: 10-s M (so in the source)
[3] = system: red blood cell (RBC) surface charge; assay: Electrophoretic mobility of erythrocytes; parameters: species or system human; conditions: concentrations 0.1 to 100 times the Ki
[4] = system: membrane anion permeability, rat diaphragm; assay: Anion permeability sequence, bi-ionic potential shift measurements; format: cell-based
[5] = system: Cl- current, rat diaphragm fibers; assay: Current-voltage relationships of diaphragm fibers; format: cell-based; conditions: 2 x 10^-5 M 9-AC, 20 ms after onset of hyperpolarizing pulses, all voltage levels
[6] = system: membrane resistance, rat diaphragm; assay: Membrane resistance of diaphragm in vitro during perfusion and wash; format: cell-based
[7] = system: membrane anion conductances (GCl, GBr, GNO3, GI), rat diaphragm; assay: Anion conductance sequence in rat diaphragm; format: cell-based
rat diaphragm fibers = assay: Resting membrane potential of diaphragm fibers; format: cell-based; conditions: fibers exposed to 2 x 10-s M 9-AC (so in the source); SD

Compound | Effects on residual conductances (GK) [1] | Relative potency [2] | also measured
3,~-Dichloro-2-amino BA | + | 76 | –
O=C(O)c1c(Cl)c(Cl)cc(Cl)c1Cl [2,3,5,6-Tetrachloro BA] | + | 47 | –
Cc1cc(C)c(C)c(C(=O)O)c1C [2,3,5,6-Tetramethyl BA] | 0 | 16.7 | –
Cc1c(C)c(C(=O)O)c(C)c(C)c1C(=O)O [2,3,5,6-Tetramethyl-4-COOH-BA] | 0 | < 0.1 | Effect on GCl (in words) ([2]; rat diaphragm): without detectable effect on Gel
O=C(O)c1c(Cl)ccc(Cl)c1Cl [2,3,6-Trichloro BA] | 0 | 10.5 | –
Cc1cc(C)c(C(=O)O)cc1C [2,4,5-Trimethyl benzoic acid] | + | 152 | Red blood cell (RBC) electrophoretic mobility [3]: No change; Permeability sequence inversion ([4]; increasing analog concentration): same sequence inversions were observed
Cc1cc(C)c(C(=O)O)c(C)c1 [2,4,6-Trimethyl BA] | 0 | 2.5 | –
O=C(O)COc1ccc(Cl)cc1Cl [2,4-Dichloro phenoxyacetic acid] | – | 5.0 | –
Cc1ccc(C(=O)O)c(C)c1 [2,4-Dimethyl BA] | + | 6.2 | –
O=C(O)c1cc(Cl)ccc1Cl [2,5-Dichloro BA] | 0 | 33.3 | –
Cc1ccc(C)c(C(=O)O)c1 [2,5-Dimethyl BA] | 0 | 32 | –
Cc1ccc(C)c(S(=O)(=O)O)c1 [2,5-Dimethyl benzene SOsH] | 0 | < 0.3 | –
O=C(O)c1c(Cl)cccc1Cl [2,6-Dichloro BA] | 0 | 5.0 | –
O=C(O)c1ccc(Cl)c(Cl)c1 [3,4-Dichloro BA] | 0 | 38 | –
Cc1ccc(C(=O)O)cc1C [3,4-Dimethyl BA] | 0 | 5.0 | –
O=C(O)c1cc(Cl)cc(Cl)c1 [3,5-Dichloro BA] | 0 | 40 | –
Cc1cc(C)cc(C(=O)O)c1 [3,5-Dimethyl BA] | 0 | 6.7 | –
Cc1cc(C(=O)O)cc(C)c1N [3,5-Dimethyl-4-amino BA] | – | < 0.3 | –
Cc1cc(C(=O)O)cc(C)c1O [3,5-Dimethyl-4-hydroxy BA] | 0 | < 0.1 | –
Cc1cc(C(=O)O)cc(C)c1[N+](=O)[O-] [3,5-Dimethyl-4-nitro BA] | 0 | 3.6 | –
O=C(O)c1c(Cl)ccc(Cl)c1[N+](=O)[O-] [3,6-Dichloro-2-nitro BA] | 0 | 6.0 | –
O=C(O)c1cc(Cl)c(Cl)cc1C(=O)O [4,5-Dichioro-2-COOH BA] | 0 | 0.63 | –
O=C(O)c1c2ccccc2cc2ccccc12 [9-AC, anthracene-9-COOH] | 0 | 909 | Early I-V relationships relative to control values [5]: about 30 % of control; Time for increase in membrane resistance to reach new steady value ([6]; 10^-5 M 9-AC in Ringer's): ≤ 10 min; Membrane resistance in chloride-free Ringer's ([6]; methylsulfate-substituted chloride-free Ringer's, same concentration (10^-5 M)): unaffected; Time for membrane resistance to return to near control levels ([6]; reperfusion with normal Ringer's after 10^-5 M 9-AC): 30 to 60 min; Anion conductance sequence ([7]; 8 x 10^-6 M 9-AC (table prints 8 x 10-e M)): CI>I>NO3>Br; Change of GI ([7]; 9-AC at 5 x 10^-5 M): appeared increased relative to control values; Reduction of GCl ([7]; 9-AC at 5 x 10^-5 M): > 90%; Change of GBr ([7]; 9-AC at 8 x 10^-6 M): changed little; Change of GI ([7]; 9-AC at 8 x 10^-6 M): appeared to increase; Reduction of GCl ([7]; 9-AC at 8 x 10^-6 M): approximately 50%; Effect on GI at concentrations reducing GCl by >90% ([7]; 9-AC concentrations reducing GCl by more than 90 percent): slight augmentation of G(I); also recorded: slight augmentation of GI; Red blood cell (RBC) electrophoretic mobility [3]: No change; Reduction of GCl ([2]; depolarizing pulses): 54%; Reduction of GCl ([2]; hyperpolarizing pulses): 58%; Percent reduction in observed GCl at varied external Ca2+ ([2]; 10^-5 M 9-AC, external [Ca2+] 2 mM, 10 mM and 20 mM): the same; Average resting membrane potential (RMP) (rat diaphragm fibers): 68.3 ± 3.8 mV; Relative permeability I- vs Cl- ([4]; 5 x 10^-5 M 9-AC, 30 min): more permeable to I- than to el-
O=C(O)c1ccccc1 [Benzoic acid (BA), Benzoic acid] | 0 | – | –
O=C(O)c1c(Cl)c(Cl)c(Cl)c(Cl)c1Cl [Pentachloro BA] | + | 125 | –
